What was measured:
Assay type in all cases: functional, organism-based
Parameters in all cases: conc 20 uM
[1] = system: Mycobacterium intracellulare subsp. chimaera; experiment: (§1) Inhibition of mycobacterial growth using the resazurin microtitre cell viability assay (REMA), compounds at final concentration of 20 µM (2% v/v DMSO). Hits were classed as compounds that inhibited bacterial growth by 70% or more compared to drug-free controls.; details: NCTC13781
[2] = system: Mycobacterium tuberculosis; experiment: as §1; details: H37Rv
[3] = system: Mycobacteroides abscessus; experiment: as §1; details: ATCC19977

| Substance | Survival [1] [%] | Survival [2] [%] | Survival [3] [%] |
| --- | --- | --- | --- |
| MMV687796 | 102 | 9.75 | 99 |
| MMV687798 | 1.47 | 7.23 | 11.5 |
| MMV687800 | 6.51 | 6.34 | 109 |
| MMV687801 | 31.5 | 58.9 | 114 |
| MMV687803 | 10.8 | 17.4 | 24.5 |
| MMV687807 | 82.9 | 4.61 | 103 |
| MMV687812 | 41 | 26 | 26.9 |
| MMV687813 | 34.4 | 5.59 | 102 |
| MMV688122 | 96.7 | 2.87 | 111 |
| MMV688124 | 107 | 94.7 | 116 |
| MMV688125 | 107 | 13.8 | 114 |
| MMV688178 | 97.1 | 103 | 107 |
| MMV688179 | 2.34 | 1.64 | 17.6 |
| MMV688180 | 101 | 94 | 116 |
| MMV688262 | 113 | 8.6 | 106 |
| MMV688270 | 98.1 | 83 | 101 |
| MMV688271 | 3.73 | 1.1 | 108 |
| MMV688273 | 106 | 97.8 | 100 |
| MMV688274 | 112 | 86 | 113 |
| MMV688279 | 114 | 32.5 | 110 |
| MMV688283 | 112 | 89.4 | 116 |
| MMV688313 | 104 | 102 | 94.8 |
| MMV688327 | -1.9 | 7.39 | 18.6 |
| MMV688330 | 103 | 99.6 | 99.9 |
| MMV688345 | 86.9 | 86 | 113 |
| MMV688350 | 92.5 | 105 | 102 |
| MMV688352 | 103 | 89.6 | 107 |
| MMV688360 | 94.3 | 100 | 100 |

| Substance | Survival [1] [%] | Survival [2] [%] | Survival [3] [%] |
| --- | --- | --- | --- |
| MMV688361 | 88.9 | 92.9 | 116 |
| MMV688362 | 90.2 | 103 | 109 |
| MMV688364 | 89.9 | 82.7 | 111 |
| MMV688371 | 107 | 111 | 119 |
| MMV688372 | 112 | 88.8 | 104 |
| MMV688407 | 106 | 94 | 116 |
| MMV688410 | 105 | 95.3 | 105 |
| MMV688411 | 89.9 | 90 | 114 |
| MMV688415 | 97.2 | 88.9 | 101 |
| MMV688416 | 94.7 | 99.5 | 103 |
| MMV688417 | 106 | 82.3 | 104 |
| MMV688466 | 106 | 93.2 | 115 |
| MMV688467 | 111 | 95.5 | 118 |
| MMV688469 | 82.8 | 90.9 | 87.3 |
| MMV688470 | 95.7 | 94.8 | 106 |
| MMV688471 | 98.6 | 87.8 | 109 |
| MMV688472 | 92.3 | 98 | 103 |
| MMV688474 | 100 | 94 | 106 |
| MMV688508 | -0.22 | 7.31 | 18.6 |
| MMV688509 | 110 | 91.6 | 119 |
| MMV688514 | 100 | 91.7 | 111 |
| MMV688543 | 97.2 | 89 | 101 |
| MMV688547 | 102 | 95.2 | 116 |
| MMV688548 | 101 | 91.6 | 115 |
| MMV688550 | 99 | 95.8 | 105 |
| MMV688552 | 103 | 81 | 107 |
| MMV688553 | 91.3 | 54 | 105 |
